Measured values published in patent publication EP0398621A2, “Immunoassay of elastase-1” (SHIONOGI SEIYAKU KABUSHIKI KAISHA trading under the name of …, priority 1989, dated 1990).

Key:
elastase-1 = details: prior art statement; cited from earlier work
E1 = assay: Radioimmunoassay standard curves of Boc-TACK-treated E1 and untreated E1; type: binding, human; details: standard curve of Boc-TACK-treated E1 compared with untreated E1
Procedure: (§1) As for measuring buffer solution, 0.01 M phosphate buffer (pH 7.4) containing 0.1 mM Boc-TACK, 0.9% sodium chloride, 0.05% sodium azide and 0.2% bovine serum albumin was used unless otherwise mentioned. One hundred µl of standard E1 solution (0.5 - 50ng/ml) or sample serum was taken into a polystyrene tube. To this were added 100 µl each of ¹²⁵I-labelled E1 solution and anti-E1 serum, which was then mixed and incubated for 3 hours at 37°C. Next, 500 µl of the preparation of the second antibody was added, which was mixed and incubated for 30 minutes at 37°C. The incubated product was centrifuged (3000 rpm, 5 minutes), after which the supernatant was removed by suction and the radioactivity of the precipitate was measured.
To evaluate the effect of Boc-TACK on the immunological reaction of E1, standard curves were drawn of Boc-TACK-treated E1 and untreated E1, and then comparison was made between the two.

¹²⁵I-labelled E1 [1] = assay: Gel filtration: binding of serum inhibitor to ¹²⁵I-labelled E1 in human serum; details: 30 minutes at 37°C, Ultrogel AcA 44, ¹²⁵I-labelled E1 treated with the inhibitor
Procedure: To human serum was added ¹²⁵I-labelled E1, which was incubated for 30 minutes at 37°C. This was then subjected to gel filtration [Ultrogel AcA 44 (made by IBF Biotechnichs), ⌀ 1.5 x 55cm, developing solution: 0.1 M phosphate buffer (pH 7.1)]. The eluate was collected in 1-ml portions and the radioactivity in each fraction was measured.
When the human serum to which ¹²⁵I-labelled E1 not treated with Boc-TACK had been added was subjected to gel filtration, the ¹²⁵I-labelled E1 was all eluted in the fraction of its complex containing α₁-antitrypsin and α₂-macroglobulin (Fig. 1-a).

¹²⁵I-labelled E1 [2] = assay: Radioimmunoassay: effect of α₁-antitrypsin or α₂-macroglobulin on the binding rate of anti-E1 serum with ¹²⁵I-labelled E1; design: species or system human
Procedure: as §1
Radioimmunoassay was performed using α₁-antitrypsin or α₂-macroglobulin solution in place of the standard E1 solution, whereby the effect of these on the binding rate was examined. As for measuring buffer solution, one mentioned in above-mentioned (7) was used in one method (A method), and one not containing Boc-TACK was used in another method (B method), and one containing PMSF in place of Boc-TACK was used in third method (C method) (Fig. 2).

In the case of `O=S(=O)(F)Cc1ccccc1` [PMSF, phenylmethanesulfonyl fluoride], the “capability of inhibiting the binding of α₁-antitrypsin and α₂-macroglobulin to elastase-1” value (elastase-1) is listed as “weak capability”.

In the case of `CC(NC(=O)[C@H](C)NC(=O)[C@H](C)NC(=O)OC(C)(C)C)C(=O)CCl` (some centres unmarked) [Boc-TACK, Nα-[N-(tert-butoxycarbonyl)alanyl]-N-(3-chloro-1-methyl-2-oxopropyl)alanineamide], the “effect on the immunological reaction of E1” value (E1) is reported as “did not affect the immunological reaction of E1 in any way”, the “elution of ¹²⁵I-labelled E1 in free fraction or complex fraction” value (¹²⁵I-labelled E1 [1]) is reported as “none of it was found in the complex fraction” and the “binding rate with increases in serum inhibitor” value (¹²⁵I-labelled E1 [2]; α₁-antitrypsin or α₂-macroglobulin solution in place of standard E1, inhibitor in measuring buffer solution) is reported as “little change was observed in the binding rate”. For the same molecule, the “binding rate with α₂-macroglobulin in a high concentration” value (¹²⁵I-labelled E1 [2]; α₂-macroglobulin in a high concentration, 0.1 mM Boc-TACK in measuring buffer solution) was “only a slight decrease”.
